The text below walks through data of a melting point compilation (Tetko et al.).

SMILES strings stand for the structures.

Take `CCOC(=O)CCCCCCCCCCCCCCCCC(=O)OCC`: the melting point (as a rule, the temperature of the solid-liquid transition) came out at 54.5 °C.
In the case of `C[Si](Cn1cncn1)(c1ccc(F)cc1)c1ccc(F)cc1` it was 54 °C; in that of `Nc1ccc(F)cc1O`, 138 °C; in that of `O=[N+]([O-])c1ccc(-n2cc([N+](=O)[O-])c(-c3ccccc3)n2)cc1`, 230 to 232 °C.
Under `N#Cc1c(F)c(F)c(F)c(F)c1C#N` stands 83 °C; under `N#CCc1ccc(Cl)cc1Cl`, 60 to 63 °C; under `CCCCN(CCCC)C(C(N)=O)c1ccc(OC)cc1` (stereo not drawn), 134 °C.
In the case of `ON=Cc1ccc2c(Br)cccc2c1` it was 178 °C; in that of `O=C(Cc1ccccc1)c1ccc2c3c(cccc13)CC2`, 114 °C; in that of `CCOC(=O)C1=C(C)NC(=O)NC1C` (stereo not drawn), 189 to 190 °C.
On to `CC1CCCC=CC2CC(O)CC2C(O)C=CC(=O)O1` (stereo not drawn), for which the melting point is 201 to 205 °C.
In the case of `CC(=O)OC1CCC2(C)C(CCC3C4CC=C(C#Cc5ccccc5)C4(C)CCC32)C1` (stereo not drawn) it was 152 to 153 °C; in that of `Cn1c(=O)c(C2=NNC(=O)C2=NNc2c(Br)cc([N+](=O)[O-])cc2[N+](=O)[O-])c(O)c2ccccc21`, 192 °C.
Under `c1ccc(-c2nc[nH]c2-c2ccccc2)cc1` stands 232 °C; under `O=C(OC1CCCCC1)c1ccccc1C(=O)OC1CCCCC1`, 66 °C; under `CC(CCC(=O)O)C1CCC2C3C(=O)CC4CC5(CCC4(C)C3CC(=O)C12C)OCCO5` (stereo not drawn), 222 °C.
Under `CCc1cc2ccccc2c2ccccc12` stands 62.5 °C.
In turn, `CC12CCC(O)CC1CCC1C2C(O)CC2(C)C(C3=CC(=O)OC3)CCC12O` (stereo not drawn) had a melting point of 280 °C.
Take `CCOC1OC2C(CO)OC(n3cnc4c(N)ncnc43)C2O1` (stereo not drawn): the melting point fell in the range of 228 to 231 °C.
Take `CCCCCCCCCCCC(=O)c1ccccc1`: the melting point is 47 °C.
As to `O=C(O)c1cc2ccccc2cc1C(=O)O`, the melting point was determined as 238 °C.
In the case of `O=C(O)c1ccc(-n2cccc2)cc1` it was 288 to 291 °C; in that of `CN(C)S(=O)N(C)C`, 31 °C; in that of `Cc1ncc([N+](=O)[O-])n1CC(O)CCl` (stereo not drawn), 77.5 °C.
In the case of `OC(c1c2ccccc2cc2ccccc12)C(F)(F)F` (stereo not drawn) it was 142 °C; in that of `O=[N+]([O-])c1ccccc1N=C=S`, 75 °C; in that of `Brc1ccc2[nH]c3ccc(Br)cc3c2c1`, 212 °C.
Turning to `BrC=Cc1ccccc1`, the melting point came to 7 °C.
In the case of `N#C/C(=C\c1ccc(F)cc1)c1nc2ccccc2c(=O)[nH]1` it was 305 to 306 °C.
Under `Nc1cc(N)nc(N)n1` stands 250 °C.
`Cc1ccc(C(c2ccc(Br)cc2)c2ccc(C)o2)o1`: the melting point is 64 °C.
In the case of `COc1ccc(C(=O)c2coc(S(N)(=O)=O)c2)cc1` it was 181 °C; in that of `CC1(C)C2CCC1(C)C(O)C2CCO` (stereo not drawn), 83 °C; in that of `COC(=O)CCC(C)C1CCC2C3C=CC4CCCCC4(C)C3CCC12C` (stereo not drawn), 60 °C.
For `CC1(C)OC(=O)C(=Cc2ccc(Br)o2)C(=O)O1`, the melting point is 116 °C.
In the case of `SCc1ccc(Br)cc1` it was 27 °C; in that of `COC(=O)c1cc(C(=O)O)cc([N+](=O)[O-])c1`, 183 °C.
Under `CC(=O)Nc1ncc([N+](=O)[O-])s1` stands 264 °C.
In turn, `CCCCCCCOCC` showed a melting point of -68.3 °C.
In the case of `N#Cc1c(F)cc(F)cc1F`, the melting point fell in the range of 57 to 61 °C.
Regarding `NC(=S)NNC(N)=S`, the melting point is 200 to 203 °C.
Under `Nc1ncnc(Nc2ccccc2)n1` stands 236 °C; under `O=C(O)c1ccc2c(c1)OCCOCCOCCOCCO2`, 188 to 191 °C; under `O=C(O)CSCC(=O)O`, 129 °C.
As for `O=S(=O)(O)c1ccc(-c2ccc(S(=O)(=O)O)cc2)cc1`, the melting point is 72.5 °C.
`N/N=C(/C(=O)c1cccc2ccccc12)c1ccccc1`: the melting point was 152 °C.
Regarding `O=S(=O)(Cl)c1sc(Cl)cc1Br`, the melting point is 34 to 36 °C.
With `CCC(=O)c1ccc2c(c1)N(CCCN(C)C)c1ccccc1S2`, the melting point amounted to 69.5 °C.
With `FC(Cl)=C(F)Cl`, the melting point was -130 °C.
`COc1ccc2c(c1)c1c3n2CCN(C)C3=NCC1` came in with a melting point of 164 °C.
Molecule `N#C/C(=C/c1ccccc1)c1ccc(Cl)cc1` came in with a melting point of 116 °C.
In the case of `CS(=O)(=O)Nc1ccc2nn(C3CCCC3)nc2c1` it was 126 °C; in that of `NC1=C(C(=O)Nc2ccccc2)C(c2ccc(Br)cc2)C2Oc3ccccc3C2O1` (stereo not drawn), 282 °C; in that of `O=C(Cc1ccc(Oc2ccccc2)cc1)c1ccccc1`, 58.3 to 59.9 °C.
Under `O=C(Nc1cccc(Cl)c1)C(C(F)(F)F)C(F)(F)F` stands 154 °C; under `Cn1cnc2[nH]c(N)nc(=O)c21`, 370 °C; under `CCCCOP(=O)(O)OCCCC`, -13 °C.
`CC(C)(C)c1cc(CC#N)cc(C(C)(C)C)c1O` gave a melting point of 111 °C.
In the case of `CC(C)(C)C(=O)C1C(=O)c2ccccc2C1=O` it was 109 °C.
With `O=C(O)c1cc2cc(Cl)cc(Cl)c2oc1=O`, the melting point is 198 to 200 °C.
In the case of `c1ccc(C2CC2)cc1` it was -31 °C.
In the case of `ClCc1ccccc1Cn1cncn1` it was 52 to 57 °C; in that of `Cc1cc(C)cc(C=O)c1`, 8 to 10 °C.
In the case of `Cc1ccc2[nH]c(C)c(C)c2c1` it was 122 °C; in that of `CC(=O)N[C@H]1[C@H](OC(C)=O)O[C@H](COC(C)=O)[C@@H](OC(C)=O)[C@@H]1OC(C)=O`, 186 to 189 °C; in that of `Nc1nc(O)nc2[nH]cnc12`, 300 °C.
On to `CCC(Br)(CC)C(=O)NC(N)=O`, for which the melting point amounted to 118 °C.
In the case of `O=c1cc(C(F)(F)F)c2cc(Cl)c(O)cc2o1` it was 178 to 182 °C.
For `Cc1nn(C)c(OCC(=O)c2ccccc2)c1C(=O)c1ccc(Cl)cc1Cl`, the melting point was 112 °C.
The molecule `CCC(C)(C)S` displayed a melting point of -104 °C.
Molecule `CC(=O)c1cc([N+](=O)[O-])c(Br)s1` returned a melting point of 105 to 106 °C.
In the case of `CCOc1ccc2cc(O)c(O)cc2c1` it was 132 °C; in that of `O=Cc1cccc2c(Br)ccc([N+](=O)[O-])c12`, 135 °C.
In the case of `N#C/C(=N\Nc1ccc(Br)cc1)c1nc2ccccc2s1` it was 280 °C; in that of `O=[N+]([O-])c1ccc2c(c1)S(=O)(=O)CC2SCCO` (stereo not drawn), 127 to 129 °C.
Molecule `N#C/C(=C/c1cccnc1)c1nc(-c2ccc(Cl)cc2)cs1` came in with a melting point of 253 °C.
Under `CN1CCN(Cc2ccc(C#N)cc2)CC1` stands 69 to 71 °C; under `CCCCCCCCCF`, 1 °C.
Under `CCN(CC)c1ccc(N=Nc2ccccc2)cc1` stands 97.5 °C; under `O=C1CCCc2ccc(Br)cc21`, 78 to 79 °C.
In the case of `Oc1ccc(C#Cc2ccc(F)cc2)cc1` it was 149 °C; in that of `CCNC(=O)C(C)OC(=O)Nc1ccccc1` (stereo not drawn), 119 °C; in that of `COC(=O)c1ccc(C(=O)Cl)cc1`, 53 to 59 °C.
With `COC1CC2C3(C)CCCC2(COC3=O)C2C(OC(C)=O)CC3C(C)C(=O)C12C3O` (stereo not drawn), the melting point was determined as 105 °C.
As to `COc1cc(C2c3cc4c(cc3C(OC3OC5COC(c6cccs6)OC5C(O)C3O)C3COC(=O)C23)OCO4)cc(OC)c1O` (stereo not drawn), the melting point stood at 244 °C.
In the case of `Cc1c(Cl)c(=O)oc2cc(OP(=O)(OCCCl)OCCCl)ccc12` it was 91 °C.
Regarding `Brc1cnc2ccccn12`, the melting point was found to be 93 °C.
Take `c1ccc(C2(c3ccccc3)CC2C2=NCCN2)cc1` (stereo not drawn): the melting point amounted to 104 °C.
Under `CC1=NN(c2ccccc2)C(=O)C1=Cc1c(O)c2cccc(C)c2[nH]c1=O` stands 171 °C; under `COC(=O)c1cc(N)cc(N)c1`, 133 °C; under `CCC1(C2CCC(OC)CC2)C(=O)NC(=O)NC1=O` (stereo not drawn), 239 to 240 °C.
`CC(C)(C)OC(=O)N[C@@H](CSCc1ccccc1)C(=O)O` gave a melting point of 85 to 88 °C.
In turn, `Cc1n[nH]c(C)c1/C=C/c1ccccc1` showed a melting point of 184 °C.
Under `N#Cc1c(Cl)cccc1[N+](=O)[O-]` stands 121 °C; under `CN(C(=S)Cl)c1ccc(Cl)cc1`, 76 to 78 °C.
In the case of `Cc1ccc(N)cc1[N+](=O)[O-]` it was 76.5 °C; in that of `CCCCCCCCOC(=O)c1ccccc1C(=O)OCCCCCCCC(C)C`, 98 °C; in that of `CCOC(=O)COC(=O)c1cc(Oc2ccc(C(F)(F)F)cc2Cl)ccc1[N+](=O)[O-]`, 65 °C.
Under `NC(=S)Nc1ccc(Oc2ccccc2)cc1` stands 175 to 177 °C; under `C[C@]1(O)C#CCCCCC#C[C@](C)(O)CC1`, 144 °C; under `C=C1C(=O)C23C(OC(C)=O)CC4C(C)(C)CCC(OC(C)=O)C4(C)C2C(OC(C)=O)CC12OC(C)(C)OC23` (stereo not drawn), 259 °C.
With `O=C(Nc1ccccc1[N+](=O)[O-])c1ccccc1`, the melting point was 96 °C.
Under `Cc1cnc(C)cn1` stands 15 °C.
In the case of `Cc1cc(C)c(O)cc1O` it was 126 °C.
In the case of `COc1c2occc2c(OC)c2c(=O)cc(C)oc12` it was 155 °C; in that of `Cc1cncc(Oc2cccc(N)c2)n1`, 59.5 to 61 °C; in that of `CCO[Si](CCCN)(OCC)OCC`, -70 °C.
The molecule `COC(=O)c1cc(I)ccc1O` yielded a melting point of 77 °C.
